In patent US20100292306A1, “Compositions And Methods For The Treatment Of Muscular Dystrophy” (priority 2005, published 2010):
Entries after “also recorded” stand apart in the source; their conditions may differ.

Key:
[1] = system: nondystrophic and mdx TS muscle fibers; experiment: Effect of Gd^3+ on resting membrane potential of isolated TS muscle preparations; assay type: cell-based, mice
Procedure: The effect of the Ca^2+ channel blocker, Gd^3+, on the resting membrane potential was examined in both nondystrophic and mdx TS muscle preparations. Gd^3+ blocks both nonselective cation channels and more Ca^2+-selective leak channels (Franco et al., 1991 and Yang and Sachs, 1989) and, at concentrations of 20-100 μM, eliminates fluorometric determinations of resting Ca^2+ influx in a variety of cells (Broad et al., 1999, Carlson and Geisbuhler, 2003, Cox et al., 2002 and Samadi et al., 2005). […]
The potential effect of Gd^3+ on resting potential was determined in several nondystrophic (5-17 months) and mdx (5-11.5 months) TS preparations by first recording from several cells in normal HEPES Ringer solution, and then adding 100 μM GdCl3 to the solution while recording continuously from a single fiber. After removing the electrode from the fiber, the resting potential of several additional fibers were determined in the presence of the lanthanide. The average resting potential in nondystrophic fibers bathed in normal HEPES Ringer was −50.1±1.4 (SE) mV, a value lower than that recorded in this laboratory from nondystrophic diaphragm (−63±1.3 mV, N=98 fibers, 5 weeks to 2 years of age; Carlson and Roshek, 2001).

[2] = system: nuclear NF-κB activation; settings: long term treatment; Durham et al. (2006); cited from earlier work
[3] = system: TNFα; experiment: ELISA of TNFα in cytosolic muscle extracts after single sulfasalazine injection; assay type: in vivo, mdx mice; settings: mdx costal diaphragm; SS 100 mg/kg ip single injection, 3 hours
Source text: (§1) Each diaphragm was divided into costal and crural regions which were processed and analyzed separately. After determining protein concentrations for each of the cytosolic and nuclear extracts (Lowry assay), samples of each extract were used to obtain standard ELISA determinations of mouse TNFα, IL-6, and IL-1β using standard procedures (Assay Designs, Inc.). These particular NFκB products were chosen because of their role in the inflammatory reaction and previously published results indicating the presence of these cytokines in nondystrophic skeletal muscle homogenates (Molina et al., Neuroimmunomodulation, 4, 28-36, 1997; Jonsdottir et al., J. of Physiol. (Lond.), 528.1, 157-163, 2000; Lang et al., Shock, 19(6), 538-546, 2003).
(§2) MDX mice aged 3 to 3.5 months were injected with either SS (100 mg/kg) or vehicle (HEPES Ringer; in mM: 147.5 NaCl, 5 KCl, 2 CaCl2, 11 glucose, 5 HEPES, pH 7.35) and euthanized at 3 hours post-injection. The costal and crural diaphragms and the gastrocnemius muscle were then immediately removed and flash frozen before beginning the procedure to obtain nuclear and cytosolic extracts as described in Example 10. ELISA determinations of TNFα, Il1-β, and IL6 were determined as described in Example 9.

[4] = system: nuclear NFκB; experiment: EMSA of nuclear NFκB binding in costal diaphragm nuclear extracts after single injection; assay type: in vivo, mdx mice; settings: sulfasalazine 100 mg/kg ip single injection, 3 hours, mdx 3 to 3.5 months
Procedure: MDX mice aged 3 to 3.5 months were injected with either sulfasalazine (SS; 100 mg/kg, ip) or vehicle (HEPES Ringer; in mM: 147.5 NaCl, 5 KCl, 2 CaCl2, 11 glucose, 5 HEPES, pH 7.35) and euthanized at 3 hours post-injection. The costal diaphragms were removed and flash frozen before beginning the extract procedure. Nuclear and cytosolic extracts were obtained using a procedure slightly modified from that described in Carlson et al. (2005) and Kumar and Boriek (2003). […] Protein determinations were determined by the method of Lowry using bovine serum albumin standards (20 μg nuclear protein was added to each lane).
; in mM: 147.5 NaCl, 5 KCl, 2 CaCl2, 11 glucose, 5 HEPES, pH 7.35; 0.1% DMSO) and euthanized at 3 hours post-injection. […] Protein determinations were determined by the method of Lowry using bovine serum albumin standards (20 μg nuclear protein was added to each lane).

[5] = system: IL6; experiment: ELISA of IL6 in cytosolic muscle extracts after single sulfasalazine injection; assay type: in vivo, mdx mice; settings: costal and crural diaphragms; SS 100 mg/kg ip single injection, 3 hours
Source text: as §1, §2

[6] = Observation of viability, side effects and body weight during treatment
[7] = system: IL1-β; experiment: ELISA of IL1-β in cytosolic muscle extracts after single sulfasalazine injection; assay type: in vivo, mdx mice; settings: SS 100 mg/kg ip single injection, 3 hours
Source text: as §1, §2

[8] = system: mdx TS muscle fibers; experiment: Intracellular recording of resting membrane potential in TS muscle fibers after chronic treatment; assay type: in vivo, mdx mice; settings: sulfasalazine 100 mg/kg ip daily 68 days, vs vehicle littermate

[Cl][Gd]([Cl])[Cl] [Gd^3+, GdCl3]
change in resting potential, total sample of fibers ([1]; 100 μM GdCl3, failed to reach statistical significance in nondystrophic or mdx): slight hyperpolarization
effect on resting potential when added during recording ([1]; 100 μM GdCl3 added while recording from nondystrophic or mdx fibers): No effect

COc1cc(/C=C/C(=O)CC(=O)/C=C/c2ccc(O)c(OC)c2)ccc1O [curcumin, diferuloylmethane]
nuclear NF-κB activation in mdx costal diaphragm [2]: did not reduce

O=C(O)c1cc(/N=N/c2ccc(S(=O)(=O)Nc3ccccn3)cc2)ccc1O [sulfasalazine, Sulfasalazine]
expression of TNFα in cytosolic extracts [3]: reduced
nuclear NFκB binding to consensus sequence / nuclear NF-kappaB activation [4]: may reduce
nuclear NFκB binding to consensus sequence / nuclear NF-kappaB activation ([4]; listed as SS): reduction
expression of IL6 in cytosolic extracts [5]: did reduce; also recorded: reduced
body weight ([6]; SS 100 mg/kg ip daily 68 days): maintained their body weight
side-effects of chronic treatment schedule ([6]; SS 100 mg/kg ip daily 68 days): no obvious side-effects
side effects after injection ([6]; SS 100 mg/kg ip, aside from 5 to 10 sec restlessness): no obvious side effects
expression of IL1-β in cytosolic extracts [7]: did not reduce; also recorded: not influenced
resting potential of TS muscle fibers [8]: significantly improves
resting potential of TS muscle fibers ([8]; listed as SS): significantly improved
